Columns and labels:
Type in all cases: in vivo
[1] = tested on: Glycine max (GLXMA, soybean); assay: Test 1B glasshouse assay for herbicidal activity, pre-emergence; settings: 480 h, 20 DAA, read-out: percentage phytotoxicity GLXMA
Method: (§1) Seeds of a variety of monocotyledonous and dicotyledonous test plants are sown in standard soil in pots. The plants are cultivated for one day (for pre-emergence) or for about 12 days (range=10-13 days) (for post-emergence) under controlled conditions in a glasshouse (warm climate species at 24/18° C., cool climate species at 20/16° C., both at day/night; 16 hours light; 65% humidity).
(§2) An “instant formulation”, known as the “IF50”, containing 50 g/liter (i.e. 5% w/v) of the “technical” (i.e. unformulated) active ingredient is prepared by dissolving the active ingredient in a mixture of organic solvents and emulsifier, details of which are provided in the Table below. This IF50 is then mixed with a small, variable amount of acetone to aid dissolution, before addition of a 0.2% v/v aqueous solution of the adjuvant X-77 (which is a mixture of alkyl aryl polyoxyethylene glycols and free fatty acids in isopropanol, CAS Registry number 11097-66-8), as the aqueous diluent, to form an aqueous spray solution which contains a predetermined concentration of the active ingredient (which varies depending on the application rate of the active ingredient to the plants) and 0.2% v/v of the adjuvant X-77. This aqueous spray solution is then sprayed onto the plants, after one day's cultivation (for pre-emergence) or after about 12 days' cultivation (for post-emergence).
(§3) The test plants are then grown on, in a glasshouse (greenhouse) under controlled conditions (at either 24/18° C. or 20/16° C. (day/night) as mentioned above; 16 hours light; 65% humidity) and are watered twice daily. Either 15 days after application of the herbicide (15 DAA) (for post-emergence), or 20 days after application of the herbicide (20 DAA) (for pre-emergence), the test plants are evaluated visually, and an assessed percentage phytotoxicity score is given for each herbicidal application on each plant species (where 100%=total damage to plant; 0%=no damage to plant).
(§4) Warm climate crop plants: Glycine max (GLXMA, soybean).

[2] = tested on: Alopecurus myosuroides (ALOMY); assay: as above; settings: 480 h, 20 DAA, read-out: percentage phytotoxicity ALOMY
Method: as §1, §2, §3
(§5) Cool climate (“cool season”) grassy monocotyledonous weeds: Alopecurus myosuroides (ALOMY), Avena fatua (AVEFA), Lolium perenne (LOLPE).

Avena fatua (AVEFA) [3] = assay: as above; settings: 480 h, 20 DAA, read-out: percentage phytotoxicity AVEFA
Method: as §1, §2, §3, §5

Lolium perenne (LOLPE) [4] = assay: as above; settings: 480 h, 20 DAA, read-out: percentage phytotoxicity LOLPE
Method: as §1, §2, §3, §5

[5] = tested on: Digitaria sanguinalis (DIGSA); assay: as above; settings: 480 h, 20 DAA, read-out: percentage phytotoxicity DIGSA
Method: as §1, §2, §3
(§6) Warm climate (“warm season”) grassy monocotyledonous weeds: Setaria faberi (SETFA), SORVU (Sorghum bicolor (L.) Moench ssp. Bicolor, or Sorghum vulgare Pers.), Digitaria sanguinalis (DIGSA), Echinochloa crus-galli (ECHCG), and Brachiaria plantaginea (BRAPL).

[6] = tested on: Echinochloa crus-galli (ECHCG); assay: as above; settings: 480 h, 20 DAA, read-out: percentage phytotoxicity ECHCG
Method: as §1, §2, §3, §6

[7] = tested on: SORVU (Sorghum bicolor (L.) Moench ssp. Bicolor, or Sorghum vulgare Pers.); assay: as above; settings: 480 h, 20 DAA, read-out: percentage phytotoxicity SORVU
Method: as §1, §2, §3, §6

Setaria faberi (SETFA) [8] = assay: as above; settings: 480 h, 20 DAA, read-out: percentage phytotoxicity SETFA
Method: as §1, §2, §3, §6

[9] = tested on: Beta vulgaris (BEAVA, sugar beet); assay: Test 1B glasshouse assay for herbicidal activity, post-emergence; settings: 360 h; for plant injury at 30 g/ha: 30 g/ha application rate; for plant injury at 125 g/ha: 125 g/ha application rate
Method: as §1, §2, §3
(§7) Cool climate crop plants: Triticum aestivum (TRZAW, winter wheat), Brassica napus (BRSNN, rape, also called oilseed rape or rapeseed), Beta vulgaris (BEAVA, sugar beet).

[10] = tested on: Brassica napus (BRSNN, rape); assay: as above; settings: 360 h; for plant injury at 30 g/ha: 30 g/ha application rate; for plant injury at 125 g/ha: 125 g/ha application rate
Method: as §1, §2, §3, §7

[11] = tested on: Triticum aestivum (TRZAW, winter wheat); assay: as above; settings: 360 h; for plant injury at 30 g/ha: 30 g/ha application rate; for plant injury at 125 g/ha: 125 g/ha application rate
Method: as §1, §2, §3, §7

[12] = tested on: Glycine max (GLXMA, soybean); assay: as above; settings: 360 h; for plant injury at 30 g/ha: 30 g/ha application rate; for plant injury at 125 g/ha: 125 g/ha application rate
Method: as §1, §2, §3, §4

[13] = tested on: Alopecurus myosuroides (ALOMY); assay: as above; settings: 360 h; for pest or weed control at 30 g/ha: 30 g/ha application rate; for pest or weed control at 125 g/ha: 125 g/ha application rate
Method: as §1, §2, §3, §5

Avena fatua (AVEFA) [14] = assay: as above; settings: 360 h; for pest or weed control at 30 g/ha: 30 g/ha application rate; for pest or weed control at 125 g/ha: 125 g/ha application rate
Method: as §1, §2, §3, §5

Lolium perenne (LOLPE) [15] = assay: as above; settings: 360 h; for pest or weed control at 30 g/ha: 30 g/ha application rate; for pest or weed control at 125 g/ha: 125 g/ha application rate
Method: as §1, §2, §3, §5

[16] = tested on: Digitaria sanguinalis (DIGSA); assay: as above; settings: 360 h; for pest or weed control at 30 g/ha: 30 g/ha application rate; for pest or weed control at 125 g/ha: 125 g/ha application rate
Method: as §1, §2, §3, §6

[17] = tested on: SORVU (Sorghum bicolor (L.) Moench ssp. Bicolor, or Sorghum vulgare Pers.); assay: as above; settings: 360 h; for pest or weed control at 30 g/ha: 30 g/ha application rate; for pest or weed control at 125 g/ha: 125 g/ha application rate
Method: as §1, §2, §3, §6

Setaria faberi (SETFA) [18] = assay: as above; settings: 360 h; for pest or weed control at 30 g/ha: 30 g/ha application rate; for pest or weed control at 125 g/ha: 125 g/ha application rate
Method: as §1, §2, §3, §6

Structure (SMILES) | plant injury at 30 g/ha [9] | plant injury at 125 g/ha [9] | plant injury at 30 g/ha [10] | plant injury at 125 g/ha [10] | plant injury at 30 g/ha [11] | plant injury at 125 g/ha [11] | plant injury at 30 g/ha [12] | plant injury at 125 g/ha [12] | pest or weed control at 30 g/ha [13] | pest or weed control at 125 g/ha [13] | pest or weed control at 30 g/ha (Avena fatua (AVEFA) [14]) | pest or weed control at 125 g/ha (Avena fatua (AVEFA) [14]) | pest or weed control at 30 g/ha (Lolium perenne (LOLPE) [15]) | pest or weed control at 125 g/ha (Lolium perenne (LOLPE) [15]) | pest or weed control at 30 g/ha [16] | pest or weed control at 125 g/ha [16] | pest or weed control at 30 g/ha [17] | pest or weed control at 125 g/ha [17] | pest or weed control at 30 g/ha (Setaria faberi (SETFA) [18]) | pest or weed control at 125 g/ha (Setaria faberi (SETFA) [18]) | further results
CC#Cc1cc(C)c(C2C(=O)C3CCC(C3)C2=O)c(OC)c1 (centres unmarked) [Compound A-10] | 20% | 20% | 40% | 60% | 60% | 80% | 10% | 20% | 60% | 100% | 20% | 40% | 30% | 80% | 90% | 100% | 100% | 100% | 80% | 100% | plant injury at 125 g/ha [1]: 0%; pest or weed control at 125 g/ha [2]: 80%; pest or weed control at 125 g/ha (Avena fatua (AVEFA) [3]): 60%; pest or weed control at 125 g/ha (Lolium perenne (LOLPE) [4]): 100%; pest or weed control at 125 g/ha [5]: 90%; pest or weed control at 125 g/ha [6]: 90%; pest or weed control at 125 g/ha [7]: 80%; pest or weed control at 125 g/ha (Setaria faberi (SETFA) [8]): 80%
CC#Cc1cc(Cl)c(C2C(=O)C3CCC(C3)C2=O)c(OC)c1 (centres unmarked) [Compound A-12] | 0% | 20% | 60% | 80% | 40% | 60% | 0% | 10% | 10% | 70% | 0% | 30% | 0% | 70% | 100% | 100% | 80% | 100% | 70% | 80% | plant injury at 250 g/ha [1]: 40%; pest or weed control at 250 g/ha [2]: 60%; pest or weed control at 250 g/ha (Avena fatua (AVEFA) [3]): 50%; pest or weed control at 250 g/ha (Lolium perenne (LOLPE) [4]): 100%; pest or weed control at 250 g/ha [5]: 100%; pest or weed control at 250 g/ha [6]: 100%; pest or weed control at 250 g/ha [7]: 90%; pest or weed control at 250 g/ha (Setaria faberi (SETFA) [8]): 100%
CC#Cc1cc(C)c(C2C(=O)CC(c3ccccn3)CC2=O)c(C)c1 (centres unmarked) [Compound A-13] |  | 20% |  | 70% |  | 30% |  | 60% |  | 30% |  | 20% |  | 70% |  | 80% |  | 80% |  | 80% | plant injury at 250 g/ha [1]: 20%; pest or weed control at 250 g/ha [2]: 80%; pest or weed control at 250 g/ha (Avena fatua (AVEFA) [3]): 30%; pest or weed control at 250 g/ha (Lolium perenne (LOLPE) [4]): 100%; pest or weed control at 250 g/ha [5]: 100%; pest or weed control at 250 g/ha [6]: 90%; pest or weed control at 250 g/ha [7]: 80%; pest or weed control at 250 g/ha (Setaria faberi (SETFA) [8]): 80%
CC#Cc1cc(C)c(C2=C(OC(=O)OC)CC(c3ccccn3)CC2=O)c(C)c1 (centres unmarked) [Compound A-14] | 30% | 40% | 60% | 70% | 60% | 80% | 40% | 70% | 70% | 80% | 20% | 60% | 70% | 80% | 80% | 100% | 80% | 100% | 80% | 90% | plant injury at 250 g/ha [1]: 20%; pest or weed control at 250 g/ha [2]: 80%; pest or weed control at 250 g/ha (Avena fatua (AVEFA) [3]): 70%; pest or weed control at 250 g/ha (Lolium perenne (LOLPE) [4]): 100%; pest or weed control at 250 g/ha [5]: 100%; pest or weed control at 250 g/ha [6]: 80%; pest or weed control at 250 g/ha [7]: 80%; pest or weed control at 250 g/ha (Setaria faberi (SETFA) [8]): 90%
CC#Cc1cc(C)c(C2=C(OC(C)=O)CC(c3ccccn3)CC2=O)c(C)c1 (centres unmarked) [Compound A-15] | 30% | 30% | 60% | 70% | 70% | 80% | 20% | 60% | 70% | 80% | 60% | 80% | 80% | 90% | 90% | 100% | 80% | 100% | 80% | 100% | plant injury at 125 g/ha [1]: 10%; pest or weed control at 125 g/ha [2]: 80%; pest or weed control at 125 g/ha (Avena fatua (AVEFA) [3]): 50%; pest or weed control at 125 g/ha (Lolium perenne (LOLPE) [4]): 90%; pest or weed control at 125 g/ha [5]: 100%; pest or weed control at 125 g/ha [6]: 80%; pest or weed control at 125 g/ha [7]: 80%; pest or weed control at 125 g/ha (Setaria faberi (SETFA) [8]): 80%
CC#Cc1cc(Cl)c(C2C(=O)C3CCC(C3)C2=O)c(OCC)c1 (centres unmarked) [Compound A-16] | 0% | 0% | 10% | 50% | 10% | 60% | 0% | 30% | 20% | 80% | 0% | 60% | 20% | 70% | 80% | 100% | 80% | 100% | 80% | 100% | plant injury at 250 g/ha [1]: 20%; pest or weed control at 250 g/ha [2]: 50%; pest or weed control at 250 g/ha (Avena fatua (AVEFA) [3]): 40%; pest or weed control at 250 g/ha (Lolium perenne (LOLPE) [4]): 70%; pest or weed control at 250 g/ha [5]: 100%; pest or weed control at 250 g/ha [6]: 80%; pest or weed control at 250 g/ha [7]: 80%; pest or weed control at 250 g/ha (Setaria faberi (SETFA) [8]): 90%
